Experimental data: paper PMC12814364 (Journal of the American Chemical Society, 2025)
Entries after “also recorded” stand apart in the source; their conditions may differ.

Target: HBHA110–199 (Mycobacterium tuberculosis, UniProt P9WIP9)
Assay: ITC binding of HS hexadecasaccharides with HBHA110–199
Conditions: for n (sugar-to-protein binding ratio) / ΔG / ΔH / –TΔS: 25 °C, Tris buffer pH 7.6; for Kd / dissociation constant, KD: Tris buffer pH 7.6, 25 °C, two trials, average ± standard deviation; for Kd: read-out: dissociation constant, KD

Chain of HBHA110–199 (P9WIP9 110-199): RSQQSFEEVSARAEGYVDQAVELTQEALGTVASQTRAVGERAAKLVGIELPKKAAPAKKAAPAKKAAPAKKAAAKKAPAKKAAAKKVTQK

O=C(O)[C@@H]1O[C@@H](O[C@H]2[C@H](O)[C@@H](NS(=O)(=O)O)[C@@H](O[C@H]3[C@H](O)[C@@H](O)[C@H]4OC[C@@H]3O4)O[C@@H]2CO)[C@H](O)[C@@H](O)[C@@H]1O[C@H]1O[C@H](CO)[C@@H](O[C@@H]2O[C@@H](C(=O)O)[C@@H](O[C@H]3O[C@H](CO)[C@@H](O[C@@H]4O[C@@H](C(=O)O)[C@@H](O[C@H]5O[C@H](CO)[C@@H](O[C@@H]6O[C@@H](C(=O)O)[C@@H](O[C@H]7O[C@H](CO)[C@@H](O[C@@H]8O[C@@H](C(=O)O)[C@@H](O[C@H]9O[C@H](CO)[C@@H](O[C@@H]%10O[C@@H](C(=O)O)[C@@H](O[C@H]%11O[C@H](CO)[C@@H](O[C@@H]%12O[C@@H](C(=O)O)[C@@H](O[C@H]%13O[C@H](CO)[C@@H](O)[C@H](O)[C@H]%13NS(=O)(=O)O)[C@H](O)[C@H]%12O)[C@H](O)[C@H]%11NS(=O)(=O)O)[C@H](O)[C@H]%10O)[C@H](O)[C@H]9NS(=O)(=O)O)[C@H](O)[C@H]8O)[C@H](O)[C@H]7NS(=O)(=O)O)[C@H](O)[C@H]6O)[C@H](O)[C@H]5NS(=O)(=O)O)[C@H](O)[C@H]4O)[C@H](O)[C@H]3NS(=O)(=O)O)[C@H](O)[C@H]2O)[C@H](O)[C@H]1NS(=O)(=O)O [compound 21]
n (sugar-to-protein binding ratio): 0.23 ± 0.10 | ΔG: –6.55 ± 0.06 kcal/mol | ΔH: 7.76 ± 4.02 kcal/mol | –TΔS: –14.30 ± 3.96 kcal/mol | Kd: 16000 ± 1500 nM

CC(=O)N[C@H]1[C@@H](O[C@H]2[C@H](O)[C@@H](OS(=O)(=O)O)[C@H]3OC[C@@H]2O3)O[C@H](COS(=O)(=O)O)[C@@H](O[C@@H]2O[C@@H](C(=O)O)[C@@H](O[C@H]3O[C@H](COS(=O)(=O)O)[C@@H](O[C@@H]4O[C@@H](C(=O)O)[C@@H](O[C@H]5O[C@H](COS(=O)(=O)O)[C@@H](O[C@@H]6O[C@@H](C(=O)O)[C@@H](O[C@H]7O[C@H](COS(=O)(=O)O)[C@@H](O[C@@H]8O[C@@H](C(=O)O)[C@@H](O[C@H]9O[C@H](COS(=O)(=O)O)[C@@H](O[C@@H]%10O[C@@H](C(=O)O)[C@@H](O[C@H]%11O[C@H](COS(=O)(=O)O)[C@@H](O[C@@H]%12O[C@@H](C(=O)O)[C@@H](O[C@H]%13O[C@H](COS(=O)(=O)O)[C@@H](O[C@@H]%14O[C@@H](C(=O)O)[C@@H](O[C@H]%15O[C@H](COS(=O)(=O)O)[C@@H](O)[C@H](O)[C@H]%15NC(C)=O)[C@H](O)[C@H]%14OS(=O)(=O)O)[C@H](O)[C@H]%13NC(C)=O)[C@H](O)[C@H]%12OS(=O)(=O)O)[C@H](O)[C@H]%11NC(C)=O)[C@H](O)[C@H]%10OS(=O)(=O)O)[C@H](O)[C@H]9NC(C)=O)[C@H](O)[C@H]8OS(=O)(=O)O)[C@H](O)[C@H]7NC(C)=O)[C@H](O)[C@H]6OS(=O)(=O)O)[C@H](O)[C@H]5NC(C)=O)[C@H](O)[C@H]4OS(=O)(=O)O)[C@H](O)[C@H]3NC(C)=O)[C@H](O)[C@H]2OS(=O)(=O)O)[C@@H]1O [compound 23]
n (sugar-to-protein binding ratio): 0.27 ± 0.01 | ΔG: –7.62 ± 0.02 kcal/mol | ΔH: 15.00 ± 0.00 kcal/mol | –TΔS: –22.60 ± 0.00 kcal/mol | Kd: 2630 ± 110 nM

CC(=O)N[C@H]1[C@@H](O[C@H]2[C@H](O)[C@@H](OS(=O)(=O)O)[C@H]3OC[C@@H]2O3)O[C@H](CO)[C@@H](O[C@@H]2O[C@@H](C(=O)O)[C@@H](O[C@H]3O[C@H](CO)[C@@H](O[C@@H]4O[C@@H](C(=O)O)[C@@H](O[C@H]5O[C@H](CO)[C@@H](O[C@@H]6O[C@@H](C(=O)O)[C@@H](O[C@H]7O[C@H](CO)[C@@H](O[C@@H]8O[C@@H](C(=O)O)[C@@H](O[C@H]9O[C@H](CO)[C@@H](O[C@@H]%10O[C@@H](C(=O)O)[C@@H](O[C@H]%11O[C@H](CO)[C@@H](O[C@@H]%12O[C@@H](C(=O)O)[C@@H](O[C@H]%13O[C@H](CO)[C@@H](O[C@@H]%14O[C@@H](C(=O)O)[C@@H](O[C@H]%15O[C@H](CO)[C@@H](O)[C@H](O)[C@H]%15NC(C)=O)[C@H](O)[C@H]%14OS(=O)(=O)O)[C@H](O)[C@H]%13NC(C)=O)[C@H](O)[C@H]%12OS(=O)(=O)O)[C@H](O)[C@H]%11NC(C)=O)[C@H](O)[C@H]%10OS(=O)(=O)O)[C@H](O)[C@H]9NC(C)=O)[C@H](O)[C@H]8OS(=O)(=O)O)[C@H](O)[C@H]7NC(C)=O)[C@H](O)[C@H]6OS(=O)(=O)O)[C@H](O)[C@H]5NC(C)=O)[C@H](O)[C@H]4OS(=O)(=O)O)[C@H](O)[C@H]3NC(C)=O)[C@H](O)[C@H]2OS(=O)(=O)O)[C@@H]1O [compound 26]
dissociation constant, KD: no detectable binding; also recorded: no binding detected

O=C(O)[C@@H]1O[C@@H](O[C@H]2[C@H](O)[C@@H](NS(=O)(=O)O)[C@@H](O[C@H]3[C@H](O)[C@@H](OS(=O)(=O)O)[C@H]4OC[C@@H]3O4)O[C@@H]2CO)[C@H](OS(=O)(=O)O)[C@@H](O)[C@@H]1O[C@H]1O[C@H](CO)[C@@H](O[C@@H]2O[C@@H](C(=O)O)[C@@H](O[C@H]3O[C@H](CO)[C@@H](O[C@@H]4O[C@@H](C(=O)O)[C@@H](O[C@H]5O[C@H](CO)[C@@H](O[C@@H]6O[C@@H](C(=O)O)[C@@H](O[C@H]7O[C@H](CO)[C@@H](O[C@@H]8O[C@@H](C(=O)O)[C@@H](O[C@H]9O[C@H](CO)[C@@H](O[C@@H]%10O[C@@H](C(=O)O)[C@@H](O[C@H]%11O[C@H](CO)[C@@H](O[C@@H]%12O[C@@H](C(=O)O)[C@@H](O[C@H]%13O[C@H](CO)[C@@H](O)[C@H](O)[C@H]%13NS(=O)(=O)O)[C@H](O)[C@H]%12OS(=O)(=O)O)[C@H](O)[C@H]%11NS(=O)(=O)O)[C@H](O)[C@H]%10OS(=O)(=O)O)[C@H](O)[C@H]9NS(=O)(=O)O)[C@H](O)[C@H]8OS(=O)(=O)O)[C@H](O)[C@H]7NS(=O)(=O)O)[C@H](O)[C@H]6OS(=O)(=O)O)[C@H](O)[C@H]5NS(=O)(=O)O)[C@H](O)[C@H]4OS(=O)(=O)O)[C@H](O)[C@H]3NS(=O)(=O)O)[C@H](O)[C@H]2OS(=O)(=O)O)[C@H](O)[C@H]1NS(=O)(=O)O [compound 27]
dissociation constant, KD: no detectable binding; also recorded: no binding detected

CC(=O)N[C@H]1[C@@H](O[C@H]2[C@H](O)[C@@H](O)[C@H]3OC[C@@H]2O3)O[C@H](COS(=O)(=O)O)[C@@H](O[C@@H]2O[C@@H](C(=O)O)[C@@H](O[C@H]3O[C@H](COS(=O)(=O)O)[C@@H](O[C@@H]4O[C@@H](C(=O)O)[C@@H](O[C@H]5O[C@H](COS(=O)(=O)O)[C@@H](O[C@@H]6O[C@@H](C(=O)O)[C@@H](O[C@H]7O[C@H](COS(=O)(=O)O)[C@@H](O[C@@H]8O[C@@H](C(=O)O)[C@@H](O[C@H]9O[C@H](COS(=O)(=O)O)[C@@H](O[C@@H]%10O[C@@H](C(=O)O)[C@@H](O[C@H]%11O[C@H](COS(=O)(=O)O)[C@@H](O[C@@H]%12O[C@@H](C(=O)O)[C@@H](O[C@H]%13O[C@H](COS(=O)(=O)O)[C@@H](O[C@@H]%14O[C@@H](C(=O)O)[C@@H](O[C@H]%15O[C@H](COS(=O)(=O)O)[C@@H](O)[C@H](O)[C@H]%15NC(C)=O)[C@H](O)[C@H]%14O)[C@H](O)[C@H]%13NC(C)=O)[C@H](O)[C@H]%12O)[C@H](O)[C@H]%11NC(C)=O)[C@H](O)[C@H]%10O)[C@H](O)[C@H]9NC(C)=O)[C@H](O)[C@H]8O)[C@H](O)[C@H]7NC(C)=O)[C@H](O)[C@H]6O)[C@H](O)[C@H]5NC(C)=O)[C@H](O)[C@H]4O)[C@H](O)[C@H]3NC(C)=O)[C@H](O)[C@H]2O)[C@@H]1O [compound 31]
dissociation constant, KD: no detectable binding; also recorded: no binding detected

O=C(O)[C@@H]1O[C@@H](O[C@H]2[C@H](O)[C@@H](NS(=O)(=O)O)[C@@H](O[C@H]3[C@H](O)[C@@H](O)[C@H]4OC[C@@H]3O4)O[C@@H]2COS(=O)(=O)O)[C@H](O)[C@@H](O)[C@@H]1O[C@H]1O[C@H](COS(=O)(=O)O)[C@@H](O[C@@H]2O[C@@H](C(=O)O)[C@@H](O[C@H]3O[C@H](COS(=O)(=O)O)[C@@H](O[C@@H]4O[C@@H](C(=O)O)[C@@H](O[C@H]5O[C@H](COS(=O)(=O)O)[C@@H](O[C@@H]6O[C@@H](C(=O)O)[C@@H](O[C@H]7O[C@H](COS(=O)(=O)O)[C@@H](O[C@@H]8O[C@@H](C(=O)O)[C@@H](O[C@H]9O[C@H](COS(=O)(=O)O)[C@@H](O[C@@H]%10O[C@@H](C(=O)O)[C@@H](O[C@H]%11O[C@H](COS(=O)(=O)O)[C@@H](O[C@@H]%12O[C@@H](C(=O)O)[C@@H](O[C@H]%13O[C@H](COS(=O)(=O)O)[C@@H](O)[C@H](O)[C@H]%13NS(=O)(=O)O)[C@H](O)[C@H]%12O)[C@H](O)[C@H]%11NS(=O)(=O)O)[C@H](O)[C@H]%10O)[C@H](O)[C@H]9NS(=O)(=O)O)[C@H](O)[C@H]8O)[C@H](O)[C@H]7NS(=O)(=O)O)[C@H](O)[C@H]6O)[C@H](O)[C@H]5NS(=O)(=O)O)[C@H](O)[C@H]4O)[C@H](O)[C@H]3NS(=O)(=O)O)[C@H](O)[C@H]2O)[C@H](O)[C@H]1NS(=O)(=O)O [compound 32]
n (sugar-to-protein binding ratio): 0.30 ± 0.01 | ΔG: –7.69 ± 0.08 kcal/mol | ΔH: 11.50 ± 0.28 kcal/mol | –TΔS: –19.15 ± 0.21 kcal/mol | Kd: 2360 ± 300 nM
